From patent US20040220089A1, “Ophthalmic preparation containing glycoprotein” (priority 2001, published 2004) come the findings set out here.

The structures appear in SMILES notation.

The test system of this data set is Madin-Darby Canine Kidney (MDCK) cells. Briefly: in vitro transepithelial permeability assay (fluorescein, Tchao) for eye irritation potential. Particulars: MDCK monolayer, 30 minutes at 37° C., Na-fluorescein permeability; SDS=100% response; less than 20% considered non-irritating.

From the text: The Tchao technique is described as a method of determining potential eye irritation of a substance by correlating damage to a mono-layer of Madin-Darby Canine Kidney (MDCK) cells with damage to corneal epithelial cells. The amount of fluorescein passing through the cell mono-layer is a function of permeability of the cell mono-layer. Higher cell mono-layer permeability indicates greater damage to the cell junctions from application of a test solution thereto, whereas lower cell mono-layer permeability indicates less damage to the cell junctions from application of the test solution. […]
Test: Each insert is rinsed with Hanks Balanced Salt Solution (HBSS) 3×1 ml using a 10 ml syringe without needle. […] After incubation at room temperature for 30 minutes, the inserts are sequentially removed from the wells, and the amount of Na-fluorescein in each of the wells is measured in a CytoFluor 2300, using 540 nm excitation and 590 nm emission. […] It has been determined that the assay can measure the effect of 50 μg/ml SDS, and the effect on the permeability of the monolayer is linearly proportional to the concentrations of SDS from 50-250 μg/ml. Fluorescence units (arbitrary) of each test solution is plotted against test solutions.
Interpretation of results: The results are expressed as % of SDS response, and comparisons with the HBSS response. […]

Consider `CCCCCCCCCCCCOS(=O)(=O)[O-].[Na+]` [SDS, sodium dodecyl sulfate], for which the “RESPONSE (percentage of SDS response)” value was found to be 100%.
